Assay results from patent US5773236A, “Assay for glutathiane transferase using polyhaloaryl-substituted reporter molecules” (Molecule Probes, Inc., priority 1997, dated 1998).

Tests used:
GST [1] = test: Quantitation of GST in enzymatic reactions, TLC (Example 55); assay type: biochemical; conditions: excess GSH, 2 μL spotted on TLC
Procedure: (§1) A set of reactions as described in Example 48 are performed using limiting concentrations of GSH (0.1 μM-1 mM), to measure the range of sensitivity of the assay for quantitating GSH. Alternatively, the reaction is performed using excess GSH and limiting GST (0.1 μg/mL-20 μg/mL) to determine the suitability of the method to detect and quantitate glutathione transferase activity of isolated enzymes or of GST-fusion proteins.
(§2) In one hour reactions at 37° C., using 0.5 mM Compound 1 (Example 1) as the substrate, 10 μg/mL GST and limiting GSH, the minimum amount of fluorescent Compound 1-GSH adduct (Compound 45) detectable by simple illumination with a long wavelength UV hand lamp corresponds to ~2-4 picomoles of GSH. When using excess GSH and variable amounts of GST, it is possible to detect by visible inspection the reaction product in solutions containing 5 μg/mL of enzyme spotted on TLC in 2 μL amounts: this spot corresponds to ~10 ng of GST. […] Quantitative measurement of the amount of product formed can be performed by either HPLC (Example 52), using a plate scanner (Example 53) or by extraction of the scraped silica gel spots into methanol or pH 8.0 buffer and measurement of the fluorescence against that of a series of dilutions of the authentic adduct (Example 45) in the same buffer using a fluorometer or microplate reader.

[2] = tested on: glutathione transferase (GST); test: Reactivity with glutathione catalyzed by glutathione transferase, TLC (Example 50); assay type: biochemical
Procedure: The suitability of Compound 1 (Example 1) and 5-(pentachlorobenzoylamino)fluorescein (Compound 48) as substrates for glutathione transferase (GST) in the presence of excess glutathione (GSH) is tested in vitro as follows: 5 mM GSH, 0.5 mM substrate (Compound 1 or Compound 48) and 20 micrograms GST (Sigma #G-6511, 70 units/mg) are combined in 0.1M phosphate buffer, pH 8.0, for 1 hour at 37° C. The reaction is terminated by spotting approximately 3 μL on silica gel TLC plates. The plate is developed using 1-butanol: methanol: water (3:1:1). […] Analysis of the reaction mixture by HPLC as in Example 52 confirms that the reaction product of Compound 1 with GSH is identical to the authentic Compound 1-GSH adduct as prepared in Example 45 (Compound 45).

GST [3] = test: HPLC analysis of the in vitro reaction mixture (Example 52); assay type: biochemical; conditions: with GST, absorbance at 500 nm
Procedure: To determine whether a compound is a selective substrate for glutathione transferase, a 2 mM ethanol stock solution of a polyhalogenated derivative (for example the series of butylbenzamides described in Example 49), reduced glutathione (phosphate buffer stock solution, 5 mM) and glutathione S-transferase (phosphate buffer stock solution, 1 unit/mL) are incubated at 25° C. in the mixture of 98% 0.1M K2 HPO4 -KH2 PO4 buffer (pH7.5) that contains 1 mM EDTA and 2% ethanol for 2 h. The reaction is then stopped by adding 10% H2 O2.
Reaction mixtures with and without GST using Compound 1 as the substrate, are prepared as described in Example 48. The solutions are mixed overnight with three volumes of ethyl acetate followed by centrifugation at 15,000×g for 30 min to separate the organic and aqueous layers. HPLC analysis using a Rainin HPLC equipped with a C18, 5 μm, 100 Å, 4.6×250 mm MICROSORB-MV reverse phase column. Products are separated in 30 min with a gradient of 5% to 95% solvent B in Solvent A at a flow rate of 1 mL/min, where solvent A is 0.1M triethylammonium acetate, pH 7.0, and solvent B is acetonitrile (see FIG. 1). Products are detected by reading the absorbance at 500 nm. Peaks are identified and, if desired, quantitated by comparing retention times with authentic samples of the glutathione adduct of Compound 45 (Example 45).

[4] = tested on: glutathione transferase (endogenous GST in BPAE cell lysates); test: Determination of GST activity in cell extracts (Example 56); assay type: biochemical, Bovine
Procedure: (§3) Cultures of BPAE cells are trypsinized, pelleted, washed once in PBS and resuspended in 200 μL of distilled water in numbers from 200 to 1,000,000. The cells are lysed by repeated freezing and thawing and spun for 10 min. in a microfuge to eliminate the insoluble particles from the lysate, which contains both GSH and GST.
The assay for the amount of GST activity present in cell lysates (endogenous GST) is performed using the same system as above with the exception that 5 mM GSH is added to the reaction mixture to ensure that there is a sufficient excess of GSH to saturate the enzyme. The reaction is incubated for one hour at 37° C. and 2 μL of each sample are spotted on TLC plates and developed as described in Example 48. Product formation is quantitated using a plate scanner as for GSH determination (as in Example 53). […] Similarly, this assay system can be used to quantitate GST-fusion proteins.

GSH in BPAE cell lysate = test: Determination of GSH in cell extracts (Example 56); assay type: biochemical, Bovine; conditions: 0.2 mM Compound 1, 5 μg GST, 2 hours, 37° C.; FIG. 3
Procedure: as §3
To 150 μL of the lysate are added 5.5 μL of 1.8M MOPS pH 7.5, Compound 1 at the final concentration of 0.2 mM, 5 μg GST and distilled water to obtain the final volume of 200 μL. The reaction mixtures are incubated for 2 hours at 37° C. and analyzed by TLC by spotting 2 μL of each sample and developing as described in Example 48. The spots corresponding to the product formed by the different amounts of cells, because of their endogenous GSH is quantitated on a plate scanner as described in Example 53. […] Quantitation of GSH can also be performed by separating the product from the reaction mixture by HPLC as in Example 52.

β-galactosidase = test: Reactivity with thiol groups of proteins (Example 51); assay type: biochemical
Procedure: To test the specificity of the Compound 1 reaction with GSH versus thiol-containing proteins, β-galactosidase (a protein that has several free thiols) is dissolved at 5 mg/mL in deoxygenated 0.1M phosphate, 0.1M NaCl, pH 7.5, and reacted under anaerobic conditions with 5-(pentafluorobenzoylamino)fluorescein diacetate (Compound 4, Example 3) or Compound 1 dissolved at 10 mg/mL in DMSO at a molar ratio of the reagent to protein of 15. This assay is performed both in the presence and absence of 30 mM N-ethyl maleimide (NEM) as an effective thiol-blocking reagent. The reactions are incubated at room temperature for 1 hour, stopped by the addition of hydroxylamine, pH 9 to a final concentration of 0.15M, and incubated for 2 more hours to hydrolyze the acetate groups. […] Consequently, no reaction of either Compound 4 or Compound 1 with β-galactosidase is detected under the described conditions.

[5] = Quantitation of GSH in enzymatic reactions, TLC (Example 55); assay type: biochemical; conditions: 0.5 mM Compound 1, 10 μg/mL GST, limiting GSH, 1 hour, 37° C., UV hand lamp
Procedure: as §1, §2

P3×63AG8 cells = test: Peptidase substrate in live cells, flow cytometry (Example 58); assay type: cell-based; conditions: 1 μM, 37° C., 30 minutes
Procedure: P3×63AG8 cells obtained from American Type Culture Collection Co., Rockville, Md. are used. They are grown in a humidified atmosphere of 5% CO2 in Dulbecco's modified Eagle's medium (D-MEM) supplemented with 10% calf serum, 50 μg/mL gentamycin, 300 μg/mL L-glutamine and 10 mM HEPES, pH 7.4. Compound 13-Arg (Prepared as in Examples 12 and 13) is dissolved at 1 mM in DMSO. The P3×63AG8 cells are trypsinized, washed with phosphate-buffered saline (PBS), pH 7.2 and resuspended in 1 mL of the same buffer. 1 μL of the stock reagent is added to 1 mL of the cell suspension to obtain a final concentration of 1 μM. Incubation is carried out at 37° C. for 30 minutes. Cells are centrifuged to form a pellet, the supernatant is discarded, the cells are washed twice with PBS, pH 7.2 and resuspended in 300 μL of the same buffer. Cells are analyzed by flow cytometry using the Becton-Dickinson FACS Vantage flow cytometer.

CRE BAG 2 cells [6] = test: Peptidase substrates in live cells, fluorescence microscopy (Example 59); assay type: cell-based; conditions: 1 μM, 0.5 μM or 0.1 μM, 37° C., 30 minutes
Procedure: CRE BAG 2 cells obtained from American Type Culture Collection Co., Rockville, Md. are used. They are grown in a humidified atmosphere of 5% CO2 in D-MEM supplemented with 10% calf serum, 50 μg/mL gentamycin, 300 μg/mL L-glutamine and 10 mM HEPES, pH 7.4. 1 mM stock solutions of Compound 13-Leu (Example 13) and Compound 13-Arg substrate are prepared in DMSO. CRE BAG 2 cells are trypsinized, washed with phosphate-buffered saline, pH 7.2 and resuspended in 1 mL of the same buffer. 1 μL, 0.5 μL or 0.1 μL of the stock reagents is added to 1 mL of the cell suspension to obtain a final concentration of 1 μM, 0.5 μM or 0.1 μM. Incubation is carried out at 37° C. for 30 minutes. Cells are centrifuged to form a pellet, the supernatant is discarded and the cells are washed with PBS, pH 7.2 and suspended in the same buffer. Cells are mounted on slides and observed by fluorescence microscopy using filters optimized for fluorescein.

CRE BAG 2 cells [7] = test: Marker gene expression by flow cytometry, CRE BAG 2 (Example 62); assay type: cell-based; conditions: 0.2 mM dye, 37° C., 30 minutes
Procedure: (§4) NIH-3T3 and CRE BAG2 cells are maintained as in Example 61. A 10 mM stock solution of (((3 -(2-pentafluorobenzoyl)amino)ethyl)amino)carbonyl)-umbelliferyl β-D-galactopyranoside (Compound 37; Example 37) is prepared in DMF. A 10 mM stock solution of 4-chloromethylcoumarin β-D-galactopyranoside (CMCG; Molecular Probes #D-2921) is prepared in a 1:1 mixture of DMSO and water. NIH-3T3 and CRE BAG2 cells are trypsinized, washed with phosphate buffered saline (PBS), pH 7.2 and resuspended in D-MEM with 10% BCS. To separate 1 mL cell suspensions are added the dye stock solutions to obtain final concentrations of 0.2 mM dye. Incubation is carried out at 37° C. for 30 minutes. Cells are centrifuged to form a pellet, the supernatant is discarded and the cells are washed twice with PBS, pH 7.2 and suspended in the same buffer. Cells are analyzed by flow cytometry using a Becton-Dickinson FACS Vantage flow cytometer. […] However, CRE BAG 2 cells stained with the Compound 37 show fluorescence that is greater than 25-fold that shown by autofluorescent control cells. For the CRE BAG 2 cells stained with CMCG, the fluorescence intensity is only 8-fold greater than that of the autofluorescent control cells.

NIH-3T3 cells = test: Marker gene expression by flow cytometry, NIH-3T3 (Example 62); assay type: cell-based; conditions: 0.2 mM dye, 37° C., 30 minutes
Procedure: as §4

With `O=C1OC2(c3ccc(O)cc3Oc3cc(O)ccc32)c2ccc(NC(=O)c3c(F)c(F)c(F)c(F)c3F)cc21` [Compound 1, 5-(pentafluorobenzoylamino)fluorescein] the “amount of GST corresponding to detectable spot” value (GST [1]) was ~ 10 ng, the “enzyme (GST) concentration detectable by visible inspection” value (GST [1]; variable GST, 1 hour, 37° C.) was 5 µg/mL and the “adduct formation with glutathione in presence of GST” value ([2]; 5 mM GSH, 0.5 mM substrate, 20 micrograms GST, pH 8.0, 1 hour, 37° C.) was “forms a fluorescent adduct with glutathione”. For the same compound, the “reaction in control without GST” value ([2]; GST omitted) was “very low or no reaction”, the “products in aqueous layer by HPLC” value (GST [3]) was “two major peaks with elution times corresponding to the Compound 45 and to the unreacted Compound 1” and the “usefulness for determination of GST activity in cell lysates” value ([4]; 5 mM GSH, one hour, 37° C., FIG. 4) was “useful for the determination of the activity of GST activity in cells lysates”. For the same compound, the “adduct formation in absence of enzyme” value ([4]; high concentration of both substrate and GSH) was “a trace amount of adduct forms”, the “plot of fluorescence intensity of Compound 1-GSH adduct versus number of cells (GSH)” value (GSH in BPAE cell lysate) was “good linearity” and the “fluorescent proteins formed, gel electrophoresis” value (β-galactosidase; molar ratio of reagent to protein 15) was “no fluorescent proteins are formed”. The “reaction with β-galactosidase, TLC” value (β-galactosidase; molar ratio of reagent to protein 15, pH 7.5, 1 hour, with and without 30 mM NEM) was “no reaction” and the “minimum amount of adduct detectable, corresponding to GSH” value [5] was 2-4 picomoles.

With `N=C(N)NCCC[C@H](N)C(=O)Nc1ccc2c(c1)Oc1cc(NC(=O)c3c(F)c(F)c(F)c(F)c3F)ccc1C21OC(=O)c2ccccc21` (stereo partly drawn) [Compound 13-Arg] the “cell fluorescence (FL 1 channel)” value (P3×63AG8 cells) was “fluorescence levels greater than the cell's autofluorescence” and the “staining of cells, fluorescence microscopy” value (CRE BAG 2 cells [6]) was “punctate green fluorescence associated with organelles”.

For `O=C(NCCNC(=O)c1cc2ccc(O[C@@H]3O[C@H](CO)[C@H](O)[C@H](O)[C@H]3O)cc2oc1=O)c1c(F)c(F)c(F)c(F)c1F` [Compound 37, ((((3-(2-pentafluorobenzoyl)amino)ethyl)amino)carbonyl)umbelliferyl β-D-galactopyranoside], the “fluorescence relative to autofluorescent control cells” value (CRE BAG 2 cells [7]) was “greater than 25 fold” and the “fluorescence versus autofluorescent cells” value (NIH-3T3 cells) was “do not show fluorescence greater than that observed for autofluorescent cells”.
